{"source": "ChEMBL document CHEMBL3885881", "about": "“DrugMatrix”", "species_on_record": "Rattus norvegicus", "experiment": "DrugMatrix - Regimen: Daily Repeat", "format": "toxicity, organism-based, Sprague-Dawley", "set-up": "regimen Daily Repeat, gender Male, age 6-8 weeks", "conditions": "in vivo, po, 2500 mg/kg, route oral GAVAGE, dose level High, […]; for ABSOLUTE BASOPHIL / ABSOLUTE EOSINOPHIL / ABSOLUTE LYMPHOCYTE / ABSOLUTE MONOCYTE / ABSOLUTE SEGMENTED NEUTROPHIL / BASOPHIL / EOSINOPHIL / ERYTHROCYTE COUNT / HEMATOCRIT / HEMOGLOBIN / LEUKOCYTE COUNT / LYMPHOCYTE / MEAN CORPUSCULAR HEMOGLOBIN / MEAN CORPUSCULAR HEMOGLOBIN CONCENTRATION / MEAN CORPUSCULAR VOLUME / MONOCYTE / NEUTROPHIL / NUCLEATED RED BLOOD CELLS / PLATELET COUNT: tissue Blood; for ALANINE AMINOTRANSFERASE / ALBUMIN / ALKALINE PHOSPHATASE / ASPARTATE AMINOTRANSFERASE / BLOOD UREA NITROGEN / CARBON DIOXIDE / CHLORIDE / CHOLESTEROL / CREATINE PHOSPHOKINASE / CREATININE / GLUCOSE / LACTATE DEHYDROGENASE / LIPASE / PHOSPHORUS / POTASSIUM / SODIUM / TOTAL BILIRUBIN / TOTAL PROTEIN / URIC ACID: tissue Plasma", "data": [{"smiles": "COc1ccc2cc(CCC(C)=O)ccc2c1", "note": "[NABUMETONE]", "values": [{"measurement": "ABSOLUTE BASOPHIL", "setting": "72 h, time 3 day", "value": 0, "unit": "CELLS/uL"}, {"measurement": "ABSOLUTE EOSINOPHIL", "setting": "72 h, time 3 day", "value": 0, "unit": "CELLS/uL"}, {"measurement": "ABSOLUTE LYMPHOCYTE", "setting": "72 h, time 3 day", "value": 9646, "unit": "CELLS/uL"}, {"measurement": "ABSOLUTE MONOCYTE", "setting": "72 h, time 3 day", "value": 275, "unit": "CELLS/uL"}, {"measurement": "ABSOLUTE SEGMENTED NEUTROPHIL", "setting": "72 h, time 3 day", "value": 3829, "unit": "CELLS/uL"}, {"measurement": "BASOPHIL", "setting": "72 h, time 3 day", "value": 0, "unit": "%"}, {"measurement": "EOSINOPHIL", "setting": "72 h, time 3 day", "value": 0, "unit": "%"}, {"measurement": "ERYTHROCYTE COUNT", "setting": "72 h, time 3 day", "value": 4.08, "unit": "x10E6/uL"}, {"measurement": "HEMATOCRIT", "setting": "72 h, time 3 day", "value": 26.8, "unit": "%"}, {"measurement": "HEMOGLOBIN", "setting": "72 h, time 3 day", "value": 10.45, "unit": "G/DL"}, {"measurement": "LEUKOCYTE COUNT", "setting": "72 h, time 3 day", "value": 13.75, "unit": "x10E3/uL"}, {"measurement": "LYMPHOCYTE", "setting": "72 h, time 3 day", "value": 70, "unit": "%"}, {"measurement": "MEAN CORPUSCULAR HEMOGLOBIN", "setting": "72 h, time 3 day", "value": 25.55, "unit": "pg"}, {"measurement": "MEAN CORPUSCULAR HEMOGLOBIN CONCENTRATION", "setting": "72 h, time 3 day", "value": 38.9, "unit": "G/DL"}, {"measurement": "MEAN CORPUSCULAR VOLUME", "setting": "72 h, time 3 day", "value": 65.7, "unit": "fL"}, {"measurement": "MONOCYTE", "setting": "72 h, time 3 day", "value": 2, "unit": "%"}, {"measurement": "NEUTROPHIL", "setting": "72 h, time 3 day", "value": 28, "unit": "%"}, {"measurement": "NUCLEATED RED BLOOD CELLS", "setting": "72 h, time 3 day", "value": "0 /100WBC"}, {"measurement": "PLATELET COUNT", "setting": "72 h, time 3 day", "value": 873.5, "unit": "x10E3/uL"}, {"measurement": "ALANINE AMINOTRANSFERASE", "setting": "72 h, time 3 day", "value": 41, "unit": "u/L"}, {"measurement": "ALBUMIN", "setting": "72 h, time 3 day", "value": 2.7, "unit": "G/DL"}, {"measurement": "ALKALINE PHOSPHATASE", "setting": "72 h, time 3 day", "value": 286.5, "unit": "u/L"}, {"measurement": "ASPARTATE AMINOTRANSFERASE", "setting": "72 h, time 3 day", "value": 125, "unit": "u/L"}, {"measurement": "BLOOD UREA NITROGEN", "setting": "72 h, time 3 day", "value": 15.5, "unit": "mg/dL"}, {"measurement": "CARBON DIOXIDE", "setting": "72 h, time 3 day", "value": 28.5, "unit": "mmol/L"}, {"measurement": "CHLORIDE", "setting": "72 h, time 3 day", "value": 94, "unit": "MEQ/L"}, {"measurement": "CHOLESTEROL", "setting": "72 h, time 3 day", "value": 75, "unit": "mg/dL"}, {"measurement": "CREATINE PHOSPHOKINASE", "setting": "72 h, time 3 day", "value": 410, "unit": "u/L"}, {"measurement": "CREATININE", "setting": "72 h, time 3 day", "value": 0.17, "unit": "mg/dL"}, {"measurement": "GLUCOSE", "setting": "72 h, time 3 day", "value": 134, "unit": "mg/dL"}, {"measurement": "LACTATE DEHYDROGENASE", "setting": "72 h, time 3 day", "value": 144, "unit": "u/L"}, {"measurement": "LIPASE", "setting": "72 h, time 3 day", "value": 9, "unit": "u/L"}, {"measurement": "PHOSPHORUS", "setting": "72 h, time 3 day", "value": 12, "unit": "mg/dL"}, {"measurement": "POTASSIUM", "setting": "72 h, time 3 day", "value": 6.89, "unit": "MEQ/L"}, {"measurement": "SODIUM", "setting": "72 h, time 3 day", "value": 136.5, "unit": "MEQ/L"}, {"measurement": "TOTAL BILIRUBIN", "setting": "72 h, time 3 day", "value": 0.1, "unit": "mg/dL"}, {"measurement": "TOTAL PROTEIN", "setting": "72 h, time 3 day", "value": 4.95, "unit": "G/DL"}, {"measurement": "URIC ACID", "setting": "72 h, time 3 day", "value": 1.35, "unit": "mg/dL"}, {"measurement": "ABSOLUTE BASOPHIL", "setting": "120 h, time 5 day", "value": 0, "unit": "CELLS/uL"}, {"measurement": "ABSOLUTE EOSINOPHIL", "setting": "120 h, time 5 day", "value": 0, "unit": "CELLS/uL"}, {"measurement": "ABSOLUTE LYMPHOCYTE", "setting": "120 h, time 5 day", "value": 3068, "unit": "CELLS/uL"}, {"measurement": "ABSOLUTE MONOCYTE", "setting": "120 h, time 5 day", "value": 0, "unit": "CELLS/uL"}, {"measurement": "ABSOLUTE SEGMENTED NEUTROPHIL", "setting": "120 h, time 5 day", "value": 8732, "unit": "CELLS/uL"}, {"measurement": "BASOPHIL", "setting": "120 h, time 5 day", "value": 0, "unit": "%"}, {"measurement": "EOSINOPHIL", "setting": "120 h, time 5 day", "value": 0, "unit": "%"}, {"measurement": "ERYTHROCYTE COUNT", "setting": "120 h, time 5 day", "value": 2.58, "unit": "x10E6/uL"}, {"measurement": "HEMATOCRIT", "setting": "120 h, time 5 day", "value": 15.9, "unit": "%"}, {"measurement": "HEMOGLOBIN", "setting": "120 h, time 5 day", "value": 6.6, "unit": "G/DL"}, {"measurement": "LEUKOCYTE COUNT", "setting": "120 h, time 5 day", "value": 11.8, "unit": "x10E3/uL"}, {"measurement": "LYMPHOCYTE", "setting": "120 h, time 5 day", "value": 26, "unit": "%"}, {"measurement": "MEAN CORPUSCULAR HEMOGLOBIN", "setting": "120 h, time 5 day", "value": 25.6, "unit": "pg"}, {"measurement": "MEAN CORPUSCULAR HEMOGLOBIN CONCENTRATION", "setting": "120 h, time 5 day", "value": 41.5, "unit": "G/DL"}, {"measurement": "MEAN CORPUSCULAR VOLUME", "setting": "120 h, time 5 day", "value": 61.8, "unit": "fL"}, {"measurement": "MONOCYTE", "setting": "120 h, time 5 day", "value": 0, "unit": "%"}, {"measurement": "NEUTROPHIL", "setting": "120 h, time 5 day", "value": 74, "unit": "%"}, {"measurement": "NUCLEATED RED BLOOD CELLS", "setting": "120 h, time 5 day", "value": "0 /100WBC"}, {"measurement": "PLATELET COUNT", "setting": "120 h, time 5 day", "value": 1731, "unit": "x10E3/uL"}, {"measurement": "ALANINE AMINOTRANSFERASE", "setting": "120 h, time 5 day", "value": 34, "unit": "u/L"}, {"measurement": "ALBUMIN", "setting": "120 h, time 5 day", "value": 2.4, "unit": "G/DL"}, {"measurement": "ALKALINE PHOSPHATASE", "setting": "120 h, time 5 day", "value": 326, "unit": "u/L"}, {"measurement": "ASPARTATE AMINOTRANSFERASE", "setting": "120 h, time 5 day", "value": 66, "unit": "u/L"}, {"measurement": "BLOOD UREA NITROGEN", "setting": "120 h, time 5 day", "value": 17, "unit": "mg/dL"}, {"measurement": "CARBON DIOXIDE", "setting": "120 h, time 5 day", "value": 28, "unit": "mmol/L"}, {"measurement": "CHLORIDE", "setting": "120 h, time 5 day", "value": 97, "unit": "MEQ/L"}, {"measurement": "CHOLESTEROL", "setting": "120 h, time 5 day", "value": 55, "unit": "mg/dL"}, {"measurement": "CREATINE PHOSPHOKINASE", "setting": "120 h, time 5 day", "value": 158, "unit": "u/L"}, {"measurement": "CREATININE", "setting": "120 h, time 5 day", "value": 0.13, "unit": "mg/dL"}, {"measurement": "GLUCOSE", "setting": "120 h, time 5 day", "value": 102, "unit": "mg/dL"}, {"measurement": "LACTATE DEHYDROGENASE", "setting": "120 h, time 5 day", "value": 80, "unit": "u/L"}, {"measurement": "LIPASE", "setting": "120 h, time 5 day", "value": 9, "unit": "u/L"}, {"measurement": "PHOSPHORUS", "setting": "120 h, time 5 day", "value": 7.6, "unit": "mg/dL"}, {"measurement": "POTASSIUM", "setting": "120 h, time 5 day", "value": 6.79, "unit": "MEQ/L"}, {"measurement": "SODIUM", "setting": "120 h, time 5 day", "value": 138, "unit": "MEQ/L"}, {"measurement": "TOTAL BILIRUBIN", "setting": "120 h, time 5 day", "value": 0.2, "unit": "mg/dL"}, {"measurement": "TOTAL PROTEIN", "setting": "120 h, time 5 day", "value": 4.7, "unit": "G/DL"}, {"measurement": "URIC ACID", "setting": "120 h, time 5 day", "value": 0.9, "unit": "mg/dL"}]}]}
